Experimental data as given in article PMC11290850, “Screening of synthetic 1,2,3-triazolic compounds inspired by SRPIN340 as anti-Trypanosoma cruzi agents” (Revista da Sociedade Brasileira de Medicina Tropical, 2024).
Entries after “also recorded” stand apart in the source; their conditions may differ. Where two headings read alike, the source gives them in different places.

What was measured:
[1] = test system: intracellular amastigotes of Trypanosoma cruzi Tulahuen transfected with β-galactosidase strain; experiment: In vitro trypanocidal activity, β-galactosidase-expressing T. cruzi in L929 fibroblasts; type: cell-based; details: for IC50: intracellular amastigotes, Tulahuen β-galactosidase strain, 96 hours of exposition; for Selectivity index (SI): CC50 (L929)/IC50 (T. cruzi Tulahuen)
Method: The in vitro assays were conducted at the Centro de Pesquisas René Rachou-Fiocruz (FIOCRUZ-MINAS), Minas Gerais, Brazil. To evaluate trypanocidal activity, initial in vitro screening was performed following the protocols described by Buckner et al.[43] and Romanha et al.. In this assay, Tulahuen T. cruzi strain expressing β-galactosidase trypomastigotes and intracellular amastigotes were cultured in mouse L929 fibroblasts in RPMI1640 medium without phenol red and containing 10% fetal bovine serum. Tissue culture microplates with L929 fibroblasts were incubated overnight at 37°C with 5% CO2. Subsequently, the Tulahuen β-galactosidase-expressing trypomastigotes were added at a ratio of 1:10 cells to trypomastigotes for 2 hours. The medium was then replaced with fresh medium, and the cultures were incubated for 48 hours. Following this step, the medium was replaced with a solution of the test compound, diluted in dimethyl sulfoxide (DMSO, less than 1%), in RPMI1640 medium with concentrations ranging from 5 to 20 µM. […] Benznidazole was utilized as a positive control at 1 µg/mL (3.84 µM).
(§1) Because the amount of beta-galactosidase is directly proportional to the number of parasites, trypanocidal activity was assessed by measuring the decrease in beta-galactosidase activity in the treated cultures compared to the infected control culture without treatment. To determine the cytotoxicity of the compounds on L929 cells, absorbance was measured at two wavelengths (570 and 600 nm) after 4-6 hours of incubation with alamarBlue® reagent (Invitrogen Corporation, USA). Cytotoxicity was evaluated by analyzing the difference in reagent reduction between treated cells (TC) and untreated cells (UT) using an equation provided by the manufacturer of alamarBlue®: […]
(§2) Half-maximum inhibitory concentration (IC50) and half-maximum cytotoxicity concentration (CC50) values were determined through linear interpolation[45] using Excel software (Microsoft Corporation, USA). The assay was conducted in triplicate, and the results are expressed as the percentage inhibition of parasite growth Cytotoxicity assay.

[2] = Cytotoxicity on L929 cells (alamarBlue); type: cell-based; details: mouse, L929 fibroblasts (infected with T. cruzi), 96-hour exposure
Method: as §1, §2
In vitro cytotoxicity assessments of the compounds were performed using AlamarBlue®. The cells and experimental conditions mirrored those used for the trypanocidal assay. After a 96-hour exposure of mouse L929 fibroblasts infected with T. cruzi to the test compounds, alamarBlue® was added, and absorbance was measured after an additional 4-6-hour incubation. IC50 values were determined by linear interpolation, and the selectivity index (SI) was calculated as the ratio of CC50 (the concentration causing 50% cytotoxicity) to IC50 (the concentration causing 50% parasitic inhibition). Benznidazole served as the positive control for comparative analysis.

U87MG lineage = test system: U87MG lineage; parameters: method as in earlier work; details: human glioblastoma cells; cited from earlier work
[3] = test system: Trypanosoma cruzi Y strain; experiment: In vivo rapid test, parasitemia in Swiss mice infected with T. cruzi Y strain; details: for Reduction in parasitemia: oral gavage once daily for five days, doses of 10, 50, and 250 mg/kg/day; for Overall performance in vivo compared with BZ / Parasitemia compared to infected untreated animals / Parasitemia compared to the untreated group: oral; for Overall performance in vivo compared with BZ: BZ at 100 mg/kg; for Parasitemia compared to infected untreated animals: doses of 50 and 250 mg/kg/day; for Parasitemia compared to the untreated group: smallest dose 10 mg/kg/day
Method: The in vivo assays were conducted at the Laboratório de Pesquisas Clínicas, Escola de Farmácia, Universidade Federal de Ouro Preto (UFOP), Minas Gerais State, Brazil, utilizing only compounds with a selectivity index (SI) exceeding 50 (Table 1).
Swiss female mice aged 28-30 days were obtained from the Centro de Ciência Animal of the Universidade Federal de Ouro Preto (UFOP), Minas Gerais State, Brazil. The animals were housed in a temperature range of 20-24 °C with a 12-hour light-dark cycle, and had ad libitum access to filtered water and commercial feed. The experimental procedures were approved by the institutional Comitê de Ética em Experimentação Animal (CEUA-UFOP), Minas Gerais State, Brazil, Protocol 2157041219.
The mice were intraperitoneally infected with 1x10^4 blood trypomastigotes of the T. cruzi Y strain obtained from mice maintained by successive blood passages (CEUA 2015/50). Infection was confirmed by fresh blood examination (FBE)[46] on the 4th day after infection, and treatment commenced. For the in vivo test, the highest concentration attainable when blending the test compounds in various orally safe vehicles was selected. Canola oil yielded the most favorable results. The compounds were diluted with canola oil to the highest possible concentration of 25 mg/mL. Subsequently, two different dilutions (5x) were prepared, resulting in doses of 250, 50, and 10 mg/kg/day. These doses were administered via oral gavage once daily (group n = 8). In parallel, a control group of mice remained infected and untreated (INT), while another group received treatment with the reference drug (BZ) at a dose of 100 mg/kg. The BZ tablets were crushed with 0.5% gum arabic, and suspended in distilled water.
To evaluate the effectiveness of the compounds in reducing parasitemia, FBE was conducted daily for five consecutive days, during which parasitemia was counted.

[4] = Trypanosoma cruzi, TULAHUEN, L929, 96 h, read-out: IC50
[5] = Trypanosoma cruzi, TULAHUEN, L929, 96 h, value in brackets, read-out: IC50
[6] = top concentration limited by solubility (20 to 160 µg/mL)

Row | Structure (SMILES) | IC50 [1, 4] | IC50 [1, 5] | CC50 at 96 h [2, 6] | Cytotoxicity / cellular growth of U87MG lineage (U87MG lineage) | IC50 [1] | Selectivity index (SI) [1] | CC50 at 96 h ([2]; value in brackets) | Reduction in parasitemia [3] | Overall performance in vivo compared with BZ [3] | Parasitemia compared to infected untreated animals [3] | Parasitemia compared to the untreated group [3]
1 | O=C(Cn1ccnc1[N+](=O)[O-])NCc1ccccc1 [Benznidazole, reference compound] | 1 µg/mL | 3.81 µM | 625 µg/mL |  |  |  |  |  |  |  | 
2 | O=C1c2ccccc2C(=O)N1Cc1cn(-c2cc(C(F)(F)F)ccc2N2CCOCC2)nn1 [Compound 6A] |  |  |  | no perceived cytotoxicity | Not active |  |  |  |  |  | 
3 | FC(F)(F)c1ccc(N2CCOCC2)c(-n2cc(COCc3ccc(Cl)cc3)nn2)c1 [Compound 6B] |  | 5 µM | 36.1 µg/mL |  |  | 15.7 | 79 µM |  |  |  | 
4 | FC(F)(F)c1ccc(N2CCOCC2)c(-n2cc(COCc3ccc(Br)cc3)nn2)c1 [Compound 6C] | < 5 µg/mL | 6.8 µM | 80 µg/mL |  |  | 23.5 | 161 µM |  |  |  | 
5 | COc1ccc(COCc2cn(-c3cc(C(F)(F)F)ccc3N3CCOCC3)nn2)cc1 [Compound 6D] | 6.6 µg/mL | 15.7 µM | > 20 µg/mL |  |  | >3.0 | > 47.6 µM |  |  |  | 
6 | FC(F)(F)c1ccc(N2CCOCC2)c(-n2cc(COCc3ccccc3)nn2)c1 [Compound 6E] | 0.5 µg/mL | 1.3 µM | 62.6 µg/mL |  |  | 125.2 | 160 µM | reduction in parasitemia; also recorded: effectively reduced | inferior overall performance | significantly reduced | did not markedly reduce parasitemia
7 | CCN(CC)c1ccc(C(F)(F)F)cc1-n1cc(COCc2ccc(Cl)cc2)nn1 [Compound 6F] |  |  |  |  | Not active |  |  |  |  |  | 
8 | FC(F)(F)c1ccc(N2CCCCC2)c(-n2cc(COCc3ccc(Cl)cc3)nn2)c1 [Compound 6G] | < 5 µg/mL | 10.4 µM | > 160 µg/mL |  |  |  | > 355 µM |  |  |  | 
9 | FC(F)(F)c1ccc(N2CCCCC2)c(-n2cc(COCc3ccc(Br)cc3)nn2)c1 [Compound 6H] |  | 4.6 µM | > 160 µg/mL |  |  | >69 | > 323 µM | reduction in parasitemia; also recorded: effectively reduced | inferior overall performance | significantly reduced | did not markedly reduce parasitemia
10 | O=C1c2ccccc2C(=O)N1Cc1cn(-c2cc(C(F)(F)F)ccc2N2CCCCC2)nn1 [Compound 6I] |  |  |  |  | Not active |  |  |  |  |  | 
11 | FC(F)(F)c1ccc(N2CCCCC2)c(-n2cc(COCc3ccccc3)nn2)c1 [Compound 6J] | 6.5 µg/mL | 15.6 µM | > 20 µg/mL |  |  |  | > 48 µM |  |  |  | 
12 | COc1ccc(COCc2cn(-c3cc(C(F)(F)F)ccc3N3CCCCC3)nn2)cc1 [Compound 6K] | 10.5 µg/mL | 23.5 µM | > 20 µg/mL |  |  |  | > 45 µM |  |  |  | 
